Test results as given in article PMC4329189, “A SelB/EF-Tu/aIF2γ-like protein from Methanosarcina mazei in the GTP-bound form binds cysteinyl-tRNA^Cys” (Journal of Structural and Functional Genomics, 2015).

Molecular target: T1, MM1309 (Methanosarcina mazei, UniProt Q8PXB3)
T1 construct: gene MM_1309; full length, 350 residues, N-terminal His tag from pET28c kept (tag residues visible in crystal), expressed in E. coli; SeMet-substituted protein for the GMPPNP and GDP crystals
T1 sequence (Q8PXB3 1-350): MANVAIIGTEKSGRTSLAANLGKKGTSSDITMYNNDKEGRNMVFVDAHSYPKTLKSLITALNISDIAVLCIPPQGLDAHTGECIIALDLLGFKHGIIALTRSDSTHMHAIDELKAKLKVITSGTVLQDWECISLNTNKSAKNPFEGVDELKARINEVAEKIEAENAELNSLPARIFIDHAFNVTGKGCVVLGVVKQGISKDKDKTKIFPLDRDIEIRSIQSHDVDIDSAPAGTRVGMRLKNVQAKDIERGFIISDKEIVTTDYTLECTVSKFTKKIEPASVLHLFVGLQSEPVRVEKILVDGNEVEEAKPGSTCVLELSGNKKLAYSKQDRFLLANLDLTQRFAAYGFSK
Test: isothermal titration calorimetry
Format: binding

Compound	Kd [µM]
Nc1nc2c(ncn2[C@@H]2O[C@H](COP(=O)(O)OP(=O)(O)OP(=O)(O)O)[C@@H](O)[C@H]2O)c(=O)[nH]1 [GTP]	0.43
Nc1nc2c(ncn2[C@@H]2O[C@H](COP(=O)(O)OP(=O)(O)NP(=O)(O)O)[C@@H](O)[C@H]2O)c(=O)[nH]1 [GMPPNP]	222
Nc1nc2c(ncn2[C@@H]2O[C@H](COP(=O)(O)OP(=O)(O)O)[C@@H](O)[C@H]2O)c(=O)[nH]1 [GDP]	26.2
